# Entries after “also recorded” stand apart in the source; their conditions may differ.
# Legend:
# [1] = system: Rbp1−/−, Rxrγ−/− and WT mice; experiment: Delayed non-match to place (DNMTP) working memory task in the T-maze; format: in vivo, mouse
# Procedure: Behaviorally naïve groups of mice were tested in the DNMTP (delayed non-match to place) procedure in the T-maze according to a protocol previously described (Wietrzych et al., 2005), with modifications to facilitate pharmacological tests (Wietrzych-Schindler et al., 2011). Spontaneous alternation was evaluated in the Ymaze apparatus according to protocol described in detail below.
# Specifically, in the present protocol, animals were first trained for 10 consecutive days with minimal inter-trial intervals (ITI) of about 15 sec, which was necessary to attain the criterion of 90% or more of correct choices during […] consecutive days (days 9-10). After this period ITI was increased semi-randomly by blocks of 3-6 min during 5 consecutive days (days 11-15 indicated) to determine “test ITI” for each animal, which was defined as the shortest ITI at which mice perform at chance level. From day 16 mice were tested using corresponding “test ITI” delays following vehicle injection on the day 16 (to test for the effect of vehicle alone) and following 9CDHROL (40 mg/kg) injection on day 17. Three mice were excluded from testing since their latency to choose the arm during the retention phase exceeded 3 min in more than one trial/day on three consecutive days (exclusion criterion). On the day 18 mice were again injected (IP) with 9CDHROL (40 mg/kg) and 9 hours later sacrificed for chemical analyses. Mice which received vehicle injections on three consecutive days were used as vehicle-treated controls for analyses of 9CDHROL metabolism. An additional group of 3 naïve mice was also injected with 9CDHROL (40 mg/kg) to test for 9CDHROL metabolism following acute treatment.
# In this variant, animals were first trained for 9 consecutive days of with minimal inter-trial intervals (ITI) of about 15 sec, which was necessary to attain the criterion of 90% or more of correct choices during three consecutive days (days 7-9). After this period ITI was increased semi-randomly to 180, 360, 720 and for some WT mice also 1080 seconds so that each animal was tested 6 times with each interval during four consecutive days (days 10-13 indicated). From day 13 mice were tested only twice per week beginning with training session on day one (with minimal, 15 sec ITIs) and testing pharmacological treatments on the second day. Only one pharmacological treatment was tested every 7 days. To test pro-mnemonic activities of UVI2108 and (R)-9CDHRA inventors used a minimal ITI, at which mice performed at chance level (50%) and which was 6 min for the Rbp1−/− or Rxrγ−/− groups and 12 min for most WT mice with exception of two mice tested at 18 min. Four mice (two wild types and one of each knockout line), were excluded from testing since their latency to choose the arm during the retention phase exceeded 3 min in more than one trial/day on three consecutive days (exclusion criterion).
# For behavioral analysis, 9CDHROL and 9CDHBC were dissolved in ethanol, and then mixed with sunflower oil, so that the final solution contained 3% ethanol. Vehicle treatments consisted of 3% ethanol solution in sunflower oil. For memory studies treatments with 9CDHRA were administered by intraperitoneal injections at volume/weight ratio 3 ml/kg at 7 am and 7 hours before the beginning of testing. For tests with animal model of chronic social defeat, different treatments were administered by intraperitoneal injections at volume/weight ratio 3 ml/kg at 10 mg/kg for each substance between 5-6 pm every second day of stress protocol immediately after the stress session starting from day 1 of the stress protocol.
# Vehicle treatments consisted of 3% ethanol and 3% DMSO solution in sunflower oil. Treatments were administered by intraperitoneal injections at volume/weight ratio 3 ml/kg between 8-10 am and 5-6 h before the test as previously validated (Wietrzych-Schindler M, 2011).
# [2] = system: C57BL/6N mice; experiment: Chronic social defeat stress model, sucrose preference test; format: in vivo, mouse; conditions: stressed mice; for sucrose preference deficit, treatments during stress protocol: dose not given at the place
# Source text: This task, designed to measure hedonic behaviors in mice is based on the palatable nature of sucrose observed in a number of mouse strains. On the first day of the test, sucrose-naive mice were placed in individual cages at 11 am and left there with water and food for habituation period. At 5 pm one water bottle was replaced with two bottles: one containing water and another 0.8% sucrose solution. Three hours later (8 pm) the bottles were weighed to measure liquid consumption and were replaced in cages until morning. The measures of an overnight consumption were then carried out for additional day to evaluate sucrose preference. Mice were not water deprived at any moment, in order to measure spontaneous sucrose preference and exclude any potential emotional confounds induced by stress of water deprivation. The sucrose preference was expressed as the percent of sucrose solution consumed with respect to total liquid consumption.
# Social defeat stress procedure was a modified version of the protocol previously described (Berton, McClung et al. 2006). C57BL/6N mice were defeated chronically for 10 consecutive days. Every day they were exposed to the physical contact with an unfamiliar CD1 aggressor in its home cage for maximal interaction time of 5 minutes. After each session of physical stress, C57BL/6N and CD1 mice were separated by a perforated wall and maintained in sensory contact for 24 h. After the last session of stress, mice were transferred into new cages and housed separately throughout the behavioral tests period. C57BL/6N control mice, similarly to the experimental animals, were housed two per cage separated by a metal perforated wall. Every day, they were exposed to the physical contact for 5 minutes.
# For behavioral analysis, 9CDHROL and 9CDHBC were dissolved in ethanol, and then mixed with sunflower oil, so that the final solution contained 3% ethanol. Vehicle treatments consisted of 3% ethanol solution in sunflower oil. For memory studies treatments with 9CDHRA were administered by intraperitoneal injections at volume/weight ratio 3 ml/kg at 7 am and 7 hours before the beginning of testing. For tests with animal model of chronic social defeat, different treatments were administered […] day of stress protocol immediately after the stress session starting from day 1 of the stress protocol.
# This task, designed to measure hedonic behavior in mice (Moreau, 1997), is based on the palatable nature of sucrose observed in a number of mouse strains. On the first day of the test, sucrose-naive mice were placed in individual cages at 11 am and left there with water and food for habituation period. At 5 pm one water bottle was replaced with two bottles: one containing water and another 0.8% sucrose solution. Three hours later (8 pm) the bottles were weighed to measure liquid consumption and were replaced in cages until morning. The measures of an overnight consumption were then carried out for additional day to evaluate sucrose preference. Mice were not water deprived at any moment, in order to measure spontaneous sucrose preference and exclude any potential emotional confounds induced by stress of water deprivation. The sucrose preference was expressed as the percent of sucrose solution consumed with respect to total liquid consumption.
# Social defeat stress procedure was a modified version of the protocol previously described (Berton et al. 2006). C57BL/6N mice were defeated chronically for 10 consecutive days. […]
# [3] = Rbp1−/− mice, ITI of 6 min, acute treatment, (R)-9CDHRA 1 or 2 mg/kg
structure (smiles),measurement,setting,value
"CC1(C)CCC(C)(C)c2cc(C3(c4ccc(C(=O)O)cc4)OCCO3)ccc21 [UVI2108, reference compound]",working memory performance in DNMTP task,[1]; [3],reversed memory deficits
same,working memory performance in DNMTP task,"[1]; Rxrγ−/− mice, ITI of 6 min",remained ineffective
same,"sucrose preference deficit, treatments during stress protocol",[2],prevented; also recorded: activities similar to 9CDHRA
"CC1=C(/C=C/C(C)=C\C=C\C(C)CCO)C(C)(C)CCC1 (stereo not drawn) [9CDHROL, 9-cis-13,14-dihydroretinol]",working memory performance in DNMTP task,"[1]; wild type C57BL6N male mice, 40 mg/kg, 7-9 h after treatment, mean ITI of 13 min, 40 mg/kg",improved working memory performance; also recorded: significantly enhanced memory performance
same,sucrose preference (anhedonia),"[2]; 10 mg/kg i.p. every second day of stress protocol, 10 mg/kg",prevented; also recorded: Anhedonia was abolished
"CC(C=CC1=C(C)CCCC1(C)C)=CC=CC(C)CC(=O)O (stereo not drawn) [9CDHRA, 9-cis-13,14-dihydroretinoic acid]",sucrose preference (anhedonia),[2]; 1 mg/kg,Anhedonia was abolished
same,"sucrose preference deficit, treatments during stress protocol",[2],prevented
"CC1=C(/C=C/C(C)=C\C=C\[C@H](C)CC(=O)O)C(C)(C)CCC1 [(R)-9CDHRA, (9Z,13R)-13,14-Dihydroretinoic Acid]",working memory performance in DNMTP task,[1]; [3],reversed working memory deficits; also recorded: improved memory performance
same,correct choices in DNMTP task,"[1]; Rxrγ−/− mice, ITI 6 min",57±7 % of correct choices
same,correct choices in DNMTP task,"[1]; WT mice, 2 mg/kg, ITI of 12 or 18 min",about 70 % of correct choices
same,working memory performance in DNMTP task,"[1]; WT mice, ITI of 12 or 18 min",showed pro-mnemonic activity; also recorded: raised performance

# From US12029715B2, “Precursor compounds for providing retinoids of the vitamin A5 pathway and uses thereof” (UNIVERSITY OF DEBRECEN, priority 2015, dated 2024)
